Experimental data: article PMC10999986, “Substrate specificity of a ketosynthase domain involved in bacillaene biosynthesis” (Beilstein Journal of Organic Chemistry, 2024)

Key:
BaeJ-KS2 [1] = molecular target: T1, BaeJ-KS2 (Bacillus amyloliquefaciens, UniProt Q1RS73); experiment: […] NMR of protein after incubation and ultrafiltration buffer exchange; format: binding; conditions: 25 °C, 30 min; labelled compound; active-site Cys replaced
T1 construct: excised second ketosynthase domain (KS2, module 4) of BaeJ, His-tagged, heterologously expressed, Ni-NTA purified

BaeJ-KS2 [2] = molecular target: T1, BaeJ-KS2; experiment: […] NMR of protein after incubation and ultrafiltration buffer exchange; proteinase K digest; conditions: 25 °C, 30 min; labelled compound; covalent binding to active-site Cys proposed

T1 sequence (Q1RS73 entry or part of it): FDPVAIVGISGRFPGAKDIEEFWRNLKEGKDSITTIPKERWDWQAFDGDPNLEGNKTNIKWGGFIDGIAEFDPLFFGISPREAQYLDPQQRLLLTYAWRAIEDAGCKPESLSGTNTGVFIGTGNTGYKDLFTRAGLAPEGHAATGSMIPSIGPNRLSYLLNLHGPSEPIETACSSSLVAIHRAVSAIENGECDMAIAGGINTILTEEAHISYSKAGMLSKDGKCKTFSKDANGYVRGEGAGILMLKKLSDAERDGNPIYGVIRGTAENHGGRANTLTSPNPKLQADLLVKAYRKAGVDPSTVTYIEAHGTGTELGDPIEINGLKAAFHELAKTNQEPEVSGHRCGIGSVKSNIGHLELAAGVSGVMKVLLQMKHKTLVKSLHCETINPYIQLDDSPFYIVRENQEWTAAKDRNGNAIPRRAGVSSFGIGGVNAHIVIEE

SMILES	thioester carbonyl 13C NMR signal (BaeJ-KS2 [1])	13C NMR of protein after incubation and ultrafiltration buffer exchange; protein (BaeJ-KS2 [2])
CC(=O)NCCSC(=O)CCCNC(=O)[C@H](O)CC(C)C [(R)-11]	(R)-11 is not bound to BaeJ-KS2-C222A after incubation and buffer exchange	This observation supports binding of both substrate surrogates to BaeJ-KS2
CC(=O)NCCSC(=O)CCCNC(=O)[C@@H](O)CC(C)C [(S)-11]	No signal corresponding to a thioester carbonyl group was detected in the protein preparations	for both samples obtained from the incubations with (S)-11 and (R)-11 signals were detected
